The text below walks through data of patent US7282507B2, “Indole derivatives as selective androgen receptor modulators (SARMS)” (Janssen Pharmaceutica N.V., priority 2004, dated 2007).

For this experiment, the target named is T1, androgen receptor LBD (Panvera) (Rattus norvegicus, UniProt P15207).
T1 construct: 5 pmol androgen receptor LBD (Panvera); purchased Panvera
T1 sequence (P15207 651-882 limits assumed): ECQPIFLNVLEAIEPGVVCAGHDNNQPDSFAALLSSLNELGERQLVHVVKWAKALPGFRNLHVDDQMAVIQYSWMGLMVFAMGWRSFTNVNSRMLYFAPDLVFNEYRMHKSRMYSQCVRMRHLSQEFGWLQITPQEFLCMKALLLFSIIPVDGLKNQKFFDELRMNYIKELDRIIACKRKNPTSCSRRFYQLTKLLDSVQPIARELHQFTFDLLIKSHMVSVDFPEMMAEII
Put plainly: Androgen Receptor Filtration Binding Assay (PANVERA). The note with it: [3H] R1881 tracer 0.5 nM; read-out: IC50 (nM), Androgen Receptor Binding (Panvera).

Regarding `CC(O)(CSc1ccc(N)cc1)c1cc2cc(Cl)c(C(F)(F)F)cc2[nH]1` (stereo not shown) [Compound 104], the IC50 was 930 nM.

What is called IC50 is the concentration that gives 50% inhibition.
